The target in test [1] is T1, Aβ(1-40) fibrils / biotinyl-Aβ(1-40) (Homo sapiens, UniProt P05067).
T1 construct: purchased Keck Biotechnology Center at Yale University
As to the kind of experiment: Microplate Aβ(1-40) elongation screening assay, LOPAC library. In kind it is biochemical. Particulars: for Initial stimulation observed: original LOPAC screen, deposition of biotinyl-Aβ(1-40) on immobilized fibrils. Here is the method:
Microtiterplate Elongation and Screening Assays. The Aβ(1-40) microplate elongation assay has been described (12). For screening the compound library, plates were coated with 100 ng Aβ(1-40) fibrils and washed. The assay was initiated by adding to each well, in order, 80 μl assay buffer [PBSA (phosphate-buffered saline containing 0.05% (w/v) sodium azide) containing 0.05% Tween 20], 10 μl of a 1 mM solution of test compound in DMSO, and 10 μl 100 nM biotinyl-Aβ in assay buffer. Plates were incubated 30 mins at 37° C., then washed and the signal developed as described using a streptavidin-europium linked fluorescence assay (12, 13). Each microplate collection of compounds was assayed in triplicate, and results reported as % inhibition compared to control wells lacking test compounds.
We screened a small library of 640 compounds, the LOPAC library (Sigma), using a microplate-based Aβ elongation assay. In this assay, plastic wells containing immobilized fibrils are incubated with a biotin-tagged monomer in the presence or absence of potential modifiers (13, 18). We found a number of compounds with potent abilities to enhance deposition of the biotin-tagged Aβ(1-40) (FIG. 1). Seven of the compounds were selected for further analysis:—amiloride HCl, phenamil methane sulfonate, naftopidil dihydrochloride, NPC 15437 dihydrochloride, calmidazolium chloride (R24571), 5-(nonoxyl)-tryptamine hydrogen oxalate, and L-α-methyl DOPA. The compounds have a wide variety of structures and biochemical properties. The structures of these seven compounds are shown in FIG. 9, along with the percent stimulation observed in the experiments.
We characterized the activity of CLC in the microplate assay in more detail.

The next test addresses T2, Aβ (Homo sapiens, UniProt P05067).
T2 construct: purchased Keck Biotechnology Center at Yale University
As to the kind of experiment: Secondary screening: aggregate formation in the absence of seeding Aβ amyloid fibrils. It is filed as biochemical. An excerpt:
Four compounds—calmidazolium chloride, NPC 15437, phenamil methane sulfonate, and amiloride HCl were chosen for secondary screening, e.g., assaying for formation of stabilized Aβ protofibrillar aggregates in the absence of seeding Aβ amyloid fibrils. All four compounds to be retested were purchased from Sigma.

The next test deals with T3, Aβ(1-40) (Homo sapiens, UniProt P05067).
T3 construct: purchased Keck Biotechnology Center at Yale University
As to the kind of experiment: Solution phase aggregation assay (ThT fluorescence, HPLC of centrifugation supernatants). It is filed as biochemical. Here is the method:
Aβ(1-40) peptides were disaggregated just prior to use, as described previously (12, 14). Peptides (50 μM in fibril formation reactions, approximately 30 μM in CLC aggregation reactions) were incubated in […] at 37° C. Reaction progress was followed by ThT fluorescence and/or quantitative HPLC on centrifugation (30 mins, 315,000×g) supernatants of reaction aliquots (12, 15). The Cr value is the concentration of Aβ in solution when this value stops changing with time. For amyloid fibril growth, this value represents a position of dynamic equilibrium and is the reciprocal of the growth equilibrium constant for the amyloid fibrils (15); for the CLC-induced aggregation, the value is a more qualitative measure of the stability of the Aβ-CLC aggregates. Samples of aggregates were stored at −80° C. after snap-freezing of washed pellets. Reactions with CLC contained 10% DMSO from the CLC stock solution.
To confirm the microtiter plate assay, we carried out solution phase experiments using unlabelled Aβ(1-40). […] During the ThT lag phase, the amount of soluble, monomeric Aβ is reduced by about a factor of two, consistent with the formation of protofibrillar structures with low ThT response (2). In contrast, in the presence of 100 μM CLC, Aβ(1-40) is rapidly converted to a pelletable aggregate, so that within 1-2 hrs only 2-3 μM Aβ remains in solution after centrifugation (FIG. 3a,b); when these aggregates are isolated by sedimentation, they are found to contain a ratio of 4 moles of CLC per mole of Aβ(1-40) (results of independent analyses against both HPLC and MS standard curves). The significance of this ratio is not clear.

Test [2] concerns the target CLC-Aβ(1-40) aggregates (stabilized Aβ protofibrillar aggregates made with calmidazolium chloride). Briefly: solution phase aggregation with 100 µM CLC; HPLC of centrifugation supernatants.
In a further test the target is T4, Aβ (1-42) (Homo sapiens, UniProt P05067).
T4 construct: polymeric sheet intermediates using Aβ (1-42) and a compound Ro 90-7501
Particulars: cited from earlier work.

Where [3] appears, read: stimulation of Aβ deposition, microplate assay, read-out: EC50.

These results are taken from patent US20060079447A1, “Stabilized A-beta protofibrillar aggregates” (priority 2004, published 2006).

Where a name gives a salt, the structure may show the parent alone. Read-outs that look alike come from different tables or passages of the source. Where only a bound is given, the exact number is not on record here.

What is called EC50 is the concentration at which the effect is half-maximal.

T1 sequence (P05067 672-711): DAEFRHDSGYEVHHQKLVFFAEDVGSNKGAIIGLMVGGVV
T3 sequence (P05067 672-711): as above
T2 sequence (P05067 672-711 limits assumed): as the sequence (P05067 672-711) above
T4 sequence (P05067 672-713): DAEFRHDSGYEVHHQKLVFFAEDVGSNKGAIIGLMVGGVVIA

In test [1], `CCCCCCCCCCCCC(=O)N1CCCCC1CNC(=O)C(N)CCCCN` (stereo not shown) [NPC15437] had an Initial stimulation observed of 149%. In addition, the EC50 in test [1] (setting [3]) is above 27.2 µM. Further, at Aβ, the “Activity in enhancing aggregate formation” value (shortened to “Activity”) is recorded as “sub-optimal activity”.
In test [1], `CCCCCCCCCOc1ccc2[nH]cc(CCN)c2c1.O=C(O)C(=O)O` [5-(nonyloxy)-tryptamine hydrogen oxalate] gave an EC50 of at least 30.3 µM and an Initial stimulation observed of 136%.
Turning to `COc1ccccc1N1CCN(CC(O)COc2cccc3ccccc23)CC1` (stereo not shown) [Naftopidil dihydrochloride, naftopidil dihydrochloride], the Initial stimulation observed in test [1] is given as 150%. Further, the EC50 in test [1] (setting [3]) was at least 36.2 µM.
Regarding “P4: tetra-substituted Aβ(1-40) mutant with prolines at positions 9, 23, 30 and 37, SEQ ID NO:34 (DAEFRHDSPYEVHHQKLVFFAEPVGSNKGPIIGLMVPGVV; Amyloid-beta protein 40; UniProt P05067 672-711, looked up, variant G9P D23P A30P G37P)”, the “Stability of amyloid fibrils” value in the test with Aβ(1-40) (scanning proline mutagenesis) is “same stability as wild type Aβ(1-40)”. Moreover, the “Stability of CLC aggregates” value in the test with Aβ(1-40) (scanning proline mutagenesis, 100 μM CLC) is given as “significantly destabilized compared to WT”.
For `N=C(N)NC(=O)c1nc(Cl)c(N)nc1N` [Amiloride HCl, amiloride HCl], the Initial stimulation observed in test [1] is listed as 96%. The EC50 in test [1] (setting [3]) was at least 38.5 µM. Also, the “Activity” value on Aβ was “sub-optimal activity”.
For `Clc1ccc(C(c2ccc(Cl)cc2)n2cc[n+](CC(OCc3ccc(Cl)cc3Cl)c3ccc(Cl)cc3Cl)c2)cc1` (stereo not shown) [Calmidazolium chloride, calmidazolium chloride], the “Stimulation of Aβ deposition compared to the elongation reaction in the absence of added compound” value in test [1] (at 100 μM) is recorded as “about six”. In addition, the “Concentrations at which deposition is stimulated (dose response)” value in test [1] (deposition of 10 nM Aβ) lay in the range of 10 to 100 µM. Further, the Initial stimulation observed in test [1] was determined as 598%. The EC50 in test [1] (setting [3]) is at least 21.4 µM. The “Activity” value at Aβ is recorded as “potent stabilizing compound”. In addition, the “ThT signal relative to the same weight of mature amyloid fibrils” value at Aβ(1-40) (100 μM CLC, after 14 days) was “about 20%”. In addition, on Aβ(1-40) (100 μM CLC, within 1-2 hrs), the “Aβ remaining in solution after centrifugation” value lay in the range of 2 to 3 µM.
On to “wild type Aβ(1-40) (disaggregated, monomeric) (peptide)”, for which the Cr (concentration of Aβ in solution when it stops changing with time) in test [2] came to 1.6 µM.
As to `C[C@](N)(Cc1ccc(O)c(O)c1)C(=O)O` [L-α-methyl DOPA], the Initial stimulation observed in test [1] was determined as 127%. In addition, the 50% effective concentration (EC50) in test [1] (setting [3]) is at least 34.2 µM.
For `NC(=Nc1ccccc1)NC(=O)c1nc(Cl)c(N)nc1N` [Phenamil methane sulfonate, phenamil methane sulfonate], in test [1], the Initial stimulation observed was 242%. Moreover, the concentration giving a half-maximal response (EC50) in test [1] (setting [3]) is at least 35.5 µM. Moreover, the “Activity” value at Aβ is “sub-optimal activity”.
On to `Nc1ccc(-c2nc3ccc(-c4nc5ccc(N)cc5[nH]4)cc3[nH]2)cc1` [Ro 90-7501], for which the “Effect on formation of mature fibrils” value on Aβ (1-42) is “retarded but did not block formation of mature fibrils”.
Consider “WT Aβ(1-40): wild type Aβ(1-40) peptide, SEQ ID NO:1”, for which, in the test with Aβ(1-40) (CLC-induced aggregation), the “Cr value, protofibril formation” value worked out at 1.6 µM. The “Cr value, fibril formation” value with Aβ(1-40) (amyloid fibril growth) came out at 0.8 µM.
